US8895613B2 (priority 2013, dated 2014)

How the values were obtained:
[1] = test system: influenza virus A/Aichi/2/69 (H3N2); set-up: species or system mice; conditions: mouse, in vivo; for efficiency of treating influenza pneumonia in mice: po, 25 mg/kg/day
[2] = target: neuraminidase of influenza virus A/California/04/09 (Influenza A virus, UniProt C3W5S3); format: biochemical; conditions: for IC50: read-out: neuraminidase activity IC50
[3] = target: neuraminidase of influenza virus A/California/07/09 (H1N1) (Influenza A virus, UniProt C3W6G3); format: biochemical; conditions: read-out: IC50, nM (number of experiments)
[4] = test system: virus strain Ia/California/07/09 (H1N1); assay: microbe, parasite or virus in culture; format: cell-based, influenza virus Ia/California/07/09 (H1N1) in MDCK cells; conditions: for IC50: Influenza A virus, H1N1, MDCK
[5] = test system: highly pathogenic strain Ia/duck/MN/1525/81 (H5N1); assay: microbe, parasite or virus in culture; format: cell-based, influenza virus Ia/duck/MN/1525/81 (H5N1) in MDCK cells; conditions: for IC50: Influenza A virus, H5N1, MDCK
[6] = target: neuraminidase of influenza virus B/Pert/211/2001 (197D) (Influenza B virus, UniProt Q3S340); format: biochemical; conditions: read-out: IC50, nM (number of experiments)
[7] = target: neuraminidase of influenza virus A/Aichi/2/69 (H3N2) (Influenza A virus, UniProt Q75VQ4); format: biochemical; conditions: read-out: IC50, nM (number of experiments)
[8] = target: neuraminidase of influenza virus B/Brisbane/60/2008 (Influenza B virus, UniProt C0LT34); format: biochemical; conditions: read-out: IC50, nM (number of experiments)

With `CCOC(=O)C1=C[C@@H](OC(CC)CC)[C@H](NC(C)=O)[C@@H](N)C1` [Tamiflu, reference compound] the “death of treated animals by the time the last animal of virus control group died” value [1] was “prevented completely” and the “weight loss of treated animals” value [1] was “did not lose weight”.

Work on `CCC(CC)O[C@@H]1C=C(C(=O)OCCc2cccnc2)C[C@H](NC(=N)N)[C@H]1NC(=O)C(F)F` [1.11, 2-pyridin-3-ylethyl (3R,4R,5S)-5-guanidino-4-(2,2-difluoroacetamido)-3-(pentan-3-yloxy)cyclohex-1-enecarboxylate] yielded an IC50 [2] of less than 1 nM.

With `CCC(CC)O[C@@H]1C=C(C(=O)OCCc2ccccc2)C[C@H](NC(=N)N)[C@H]1NC(=O)C(F)F` [1.10, 2-phenylethyl (3R,4R,5S)-5-guanidino-4-(2,2-difluoroacetamido)-3-(pentan-3-yloxy)cyclohex-1-enecarboxylate] the IC50 [2] was less than 1 nM.

In the case of `CCC(CC)O[C@@H]1C=C(C(=O)O)C[C@H](NC(=N)N)[C@H]1NC(=O)CF` [1.1, (3R,4R,5S)-5-guanidino-4-fluoroacetamido-3-(pentan-3-yloxy)cyclohex-1-enecarboxylic acid], the IC50 [3] is reported as 0.18 nM, the “more active than Oseltamivir carboxylate (A2) by factor” value [4] is reported as 13 and the “more active than Zanamivir (Zan) by factor” value [4] is reported as 20. The IC50 [4] was 780 nM, the “activity higher than that of Oseltamivir carboxylate, times” value [5] was 24 and the “activity higher than that of Zanamivir (Zan), times” value [5] was 16. For the same compound, the IC50 [5] was 3200 nM, the IC50 [6] was 2.08 nM and the “times more active than A2” value [2] was 4. The “times more active than A4” value [2] was 400, the IC50 [7] was 0.69 nM and the IC50 [8] was 1.27 nM.

Work on `CCC(CC)O[C@@H]1C=C(C(=O)O)C[C@H](N)[C@H]1NC(C)=O` [A2, (3R,4R,5S)-5-amino-4-acetamido-3-(pentan-3-yloxy)cyclohex-1-enecarboxylic acid, reference compound] yielded an IC50 [4] of 9900 nM and an IC50 [5] of 77500 nM.

In the case of `CC(=O)NC1C(NC(=N)N)C=C(C(=O)O)OC1C(O)C(O)CO` [Zan, 5-Acetamido-2,3-didehydro-3,4,5-trideoxy-4-guanidino-alpha-D-glycero-D-galacto-2-nonulopyranosonic acid, reference compound], the IC50 [4] is reported as 16000 nM and the IC50 [5] is reported as 51200 nM.

For `CCOC(=O)C1=C[C@@H](OC(CC)CC)[C@H](NC(=O)CF)[C@@H](NC(=N)N)C1` [1.3, ethyl (3R,4R,5S)-5-guanidino-4-fluoroacetamido-3-(pentan-3-yloxy)cyclohex-1-enecarboxylate], the “efficiency of treating influenza pneumonia in mice” value [1] was “high efficiency”.

`CCC(CC)O[C@@H]1C=C(C(=O)O)C[C@H](NC(=N)N)[C@H]1NC(=O)C(F)F` [1.4, (3R,4R,5S)-5-guanidino-4-difluoroacetamido-3-(pentan-3-yloxy)cyclohex-1-enecarboxylic acid] was tested, and the “times more active than A2” value [2] was 2.7 and the “times more active than A4” value [2] was 267.

`CCC(CC)O[C@@H]1C=C(C(=O)OC2CCCCC2)C[C@H](NC(=N)N)[C@H]1NC(=O)C(F)F` [1.9, 2-cyclohexyl (3R,4R,5S)-5-guanidino-4-(2,2-difluoroacetamido)-3-(pentan-3-yloxy)cyclohex-1-enecarboxylate] showed an IC50 [2] of less than 1 nM.

For `CCOC(=O)C1=C[C@@H](OC(CC)CC)[C@H](NC(=O)C(F)F)[C@@H](NC(=N)N)C1` [1.6, ethyl (3R,4R,5S)-5-guanidino-4-difluoroacetamido-3-(pentan-3-yloxy)cyclohex-1-enecarboxylate], the “efficiency of treating influenza pneumonia in mice” value [1] was “high efficiency”.

`CCC(CC)O[C@@H]1C=C(C(=O)OCCOC)C[C@H](NC(=N)N)[C@H]1NC(=O)C(F)F` [1.12, 2-methoxyethyl (3R,4R,5S)-5-guanidino-4-(2,2-difluoroacetamido)-3-(pentan-3-yloxy)cyclohex-1-enecarboxylate] gave an IC50 [2] of less than 1 nM.
